In patent US4795826A, “Ortho-phenylenediamine compounds” (priority 1986, dated 1989):

Columns and labels:
P388 leukemia = P388 leukemia in vivo (increase in lifespan of mice, i.p. tumour); settings: for ILSmax (percentage increase in lifespan) / ILSmax (percentage increase in lifespan), marked *: P388, at OD on days 1, 5, 9, >20% statistically significant; for ILSmax (percentage increase in lifespan): values without asterisk, controls 11 days; for active (P388): P388, at the stated dose
Lewis lung carcinoma = Lewis lung carcinoma in vivo (increase in lifespan of mice, i.v. tumour); settings: Lewis lung; for ILS (percentage increase in lifespan) / ILS (percentage increase in lifespan), marked *: at OD on days 1, 5, 9, >40% statistically significant; for ILS (percentage increase in lifespan): values without asterisk, controls 17 days; for active (Lewis lung): at the stated dose

SMILES	ILSmax (percentage increase in lifespan) (P388 leukemia) [%]	active (P388) (P388 leukemia)	other results
CNc1cc(NS(C)(=O)=O)ccc1Nc1c2ccccc2nc2cc(C)ccc12 [Compound 3]	83	Y	–
CNc1cc(NS(C)(=O)=O)ccc1Nc1c2ccccc2nc2cc(OC)ccc12 [Compound 4]	–	Y	ILSmax (percentage increase in lifespan), marked * (P388 leukemia): 140%
CNc1cc(NS(C)(=O)=O)ccc1Nc1c2ccccc2nc2cc(F)ccc12 [Compound 5]	–	Y	ILSmax (percentage increase in lifespan), marked * (P388 leukemia): 157%
CNc1cc(NS(C)(=O)=O)ccc1Nc1c2ccccc2nc2cc(Cl)ccc12 [Compound 6]	–	Y	ILSmax (percentage increase in lifespan), marked * (P388 leukemia): 149%
CNc1cc(NS(C)(=O)=O)ccc1Nc1c2ccccc2nc2cc(Br)ccc12 [Compound 7]	94	Y	–
CNc1cc(NS(C)(=O)=O)ccc1Nc1c2ccccc2nc2cc(I)ccc12 [Compound 8]	80	Y	–
CNc1cc(NS(C)(=O)=O)ccc1Nc1c2ccccc2nc2cc([N+](=O)[O-])ccc12 [Compound 9]	70	Y	–
CNc1ccc2c(Nc3ccc(NS(C)(=O)=O)cc3NC)c3ccccc3nc2c1 [Compound 10]	–	Y	ILSmax (percentage increase in lifespan), marked * (P388 leukemia): 208%
CNc1cc(NS(C)(=O)=O)ccc1Nc1c2ccccc2nc2cc(NC(=O)OC)ccc12 [Compound 11]	–	Y	ILSmax (percentage increase in lifespan), marked * (P388 leukemia): 135%
CNc1cc(NS(C)(=O)=O)ccc1Nc1c2ccccc2nc2c(OC)cccc12 [Compound 13]	–	Y	ILSmax (percentage increase in lifespan), marked * (P388 leukemia): 118%; ILS (percentage increase in lifespan) (Lewis lung carcinoma): 153%; active (Lewis lung) (Lewis lung carcinoma): Y
CNC(=O)c1cccc2c(Nc3ccc(NS(C)(=O)=O)cc3NC)c3ccccc3nc12 [Compound 15]	82	Y	–
CNc1cc(NS(C)(=O)=O)ccc1Nc1c2ccc(C)cc2nc2c(C)cccc12 [Compound 16]	92	Y	–
CNc1cc(NS(C)(=O)=O)ccc1Nc1c2ccc(OC)cc2nc2c(C)cccc12 [Compound 17]	102	Y	–
CNc1cc(NS(C)(=O)=O)ccc1Nc1c2ccc(F)cc2nc2c(C)cccc12 [Compound 18]	–	Y	ILSmax (percentage increase in lifespan), marked * (P388 leukemia): 152%; ILS (percentage increase in lifespan), marked * (Lewis lung carcinoma): 143%; active (Lewis lung) (Lewis lung carcinoma): Y
CNc1cc(NS(C)(=O)=O)ccc1Nc1c2ccc(Cl)cc2nc2c(C)cccc12 [Compound 19]	–	Y	ILSmax (percentage increase in lifespan), marked * (P388 leukemia): 128%; ILS (percentage increase in lifespan) (Lewis lung carcinoma): 126%; active (Lewis lung) (Lewis lung carcinoma): Y
CNc1cc(NS(C)(=O)=O)ccc1Nc1c2ccc(Cl)cc2nc2c(OC)cccc12 [Compound 20]	105	Y	–
CNc1cc(NS(C)(=O)=O)ccc1Nc1c2ccc(Br)cc2nc2c(C)cccc12 [Compound 21]	122	Y	–
CNc1cc(NS(C)(=O)=O)ccc1Nc1c2ccc(C)cc2nc2c(OC)cccc12 [Compound 22]	122	Y	–
CNC(=O)c1cccc2c(Nc3ccc(NS(C)(=O)=O)cc3NC)c3ccc(Cl)cc3nc12 [Compound 23]	59	Y	–
CNC(=O)c1cccc2c(Nc3ccc(NS(C)(=O)=O)cc3NC)c3cccc(C)c3nc12 [Compound 24]	94	Y	–
CNc1cc(NS(C)(=O)=O)ccc1Nc1c2cccc(C)c2nc2c(C)cccc12 [Compound 25]	107	Y	–
CNc1cc(NS(C)(=O)=O)ccc1Nc1c2cccc(OC)c2nc2c(OC)cccc12 [Compound 26]	84	Y	–
CS(=O)(=O)Nc1ccc(Nc2c3ccccc3nc3ccccc23)c(NCCO)c1 [Compound 27]	89	Y	–
CS(=O)(=O)Nc1ccc(Nc2c3ccccc3nc3cc(Br)ccc23)c(NCCO)c1 [Compound 28]	117	Y	–

SMILES	ILSmax (percentage increase in lifespan) (P388 leukemia) [%]	active (P388) (P388 leukemia)	other results
Cc1cccc2c(Nc3ccc(NS(C)(=O)=O)cc3NCCO)c3ccccc3nc12 [Compound 29]	–	Y	ILSmax (percentage increase in lifespan), marked * (P388 leukemia): 159%
CS(=O)(=O)Nc1ccc(Nc2c3ccccc3nc3ccccc23)c(NCC(O)CO)c1 (stereo not drawn) [Compound 30]	84	Y	–
Cc1cccc2c(Nc3ccc(NS(C)(=O)=O)cc3NCC(O)CO)c3ccccc3nc12 (stereo not drawn) [Compound 31]	83	Y	–
CN(C)c1cc(NS(C)(=O)=O)ccc1Nc1c2ccccc2nc2ccccc12 [Compound 32]	–	Y	ILSmax (percentage increase in lifespan), marked * (P388 leukemia): 212%; cured animals (Lewis lung carcinoma; at OD): all cured; ILS (percentage increase in lifespan) (Lewis lung carcinoma): > 250%; active (Lewis lung) (Lewis lung carcinoma): Y
CN(CCO)c1cc(NS(C)(=O)=O)ccc1Nc1c2ccccc2nc2ccccc12 [Compound 45]	–	Y	ILSmax (percentage increase in lifespan), marked * (P388 leukemia): 100%
Cc1cccc2c(Nc3ccc(NS(C)(=O)=O)cc3N(C)CCO)c3ccccc3nc12 [Compound 46]	–	Y	ILSmax (percentage increase in lifespan), marked * (P388 leukemia): 152%
CNc1cc(NP(=O)(OC)OC)ccc1Nc1c2ccccc2nc2ccccc12 [Compound 47]	118	Y	–
CNc1cc(NP(=O)(OC)OC)ccc1Nc1c2ccccc2nc2cc(Br)ccc12 [Compound 48]	77	Y	–
CNc1cc(NP(=O)(OC)OC)ccc1Nc1c2ccccc2nc2c(C)cccc12 [Compound 49]	91	Y	–
CNc1cc(NC(=O)OC)ccc1Nc1c2ccccc2nc2ccccc12 [Compound 50]	132	Y	ILS (percentage increase in lifespan), marked * (Lewis lung carcinoma): 122%; active (Lewis lung) (Lewis lung carcinoma): Y
COC(=O)Nc1ccc(Nc2c3ccccc3nc3ccccc23)c(NCCO)c1 [Compound 51]	121	Y	–
CNc1cc(NC(=O)OC)ccc1Nc1c2ccccc2nc2cc(C)ccc12 [Compound 52]	86	Y	–
CNc1cc(NC(=O)OC)ccc1Nc1c2ccccc2nc2cc(F)ccc12 [Compound 53]	110	Y	–
CNc1cc(NC(=O)OC)ccc1Nc1c2ccccc2nc2cc(Cl)ccc12 [Compound 54]	104	Y	–
CNc1cc(NC(=O)OC)ccc1Nc1c2ccccc2nc2cc(Br)ccc12 [Compound 55]	101	Y	–
COC(=O)Nc1ccc(Nc2c3ccccc3nc3ccccc23)c(N(C)C)c1 [Compound 59]	51	Y	–
CNc1cc(NS(=O)(=O)c2ccccc2)ccc1Nc1c2ccccc2nc2ccccc12 [Compound 60]	117	Y	–
O=S(=O)(Nc1ccc(Nc2c3ccccc3nc3ccccc23)c(NCCO)c1)c1ccccc1 [Compound 61]	81	Y	–
CNc1cc(NS(=O)(=O)c2ccc(N)cc2)ccc1Nc1c2ccccc2nc2ccccc12 [Compound 62]	104	Y	–
CNc1cc(NS(=O)(=O)c2ccc(N)cc2)ccc1Nc1c2ccccc2nc2cc(Br)ccc12 [Compound 63]	115	Y	–
CNc1cc(NS(=O)(=O)c2ccc(N)cc2)ccc1Nc1c2ccccc2nc2c(C)cccc12 [Compound 64]	139	Y	–
Nc1ccc(S(=O)(=O)Nc2ccc(Nc3c4ccccc4nc4ccccc34)c(NCCO)c2)cc1 [Compound 65]	50	Y	–
CNc1cc(NC(=O)Oc2ccccc2)ccc1Nc1c2ccccc2nc2ccccc12 [Compound 66]	71	Y	–
